Structures are written as SMILES. Read-outs that look alike come from different tables or passages of the source.

This test deals with T1, ASK1 (Homo sapiens, UniProt Q99683).
T1 construct: a 2.2 kb DNA fragment containing an ASK1 gene was recovered from the gel; FLAG (N); made in house; host or cells: Sf-21 insect cells (recombinant baculovirus, pFASTBAC1)
T1 sequence (Q99683 649-1374 limits assumed): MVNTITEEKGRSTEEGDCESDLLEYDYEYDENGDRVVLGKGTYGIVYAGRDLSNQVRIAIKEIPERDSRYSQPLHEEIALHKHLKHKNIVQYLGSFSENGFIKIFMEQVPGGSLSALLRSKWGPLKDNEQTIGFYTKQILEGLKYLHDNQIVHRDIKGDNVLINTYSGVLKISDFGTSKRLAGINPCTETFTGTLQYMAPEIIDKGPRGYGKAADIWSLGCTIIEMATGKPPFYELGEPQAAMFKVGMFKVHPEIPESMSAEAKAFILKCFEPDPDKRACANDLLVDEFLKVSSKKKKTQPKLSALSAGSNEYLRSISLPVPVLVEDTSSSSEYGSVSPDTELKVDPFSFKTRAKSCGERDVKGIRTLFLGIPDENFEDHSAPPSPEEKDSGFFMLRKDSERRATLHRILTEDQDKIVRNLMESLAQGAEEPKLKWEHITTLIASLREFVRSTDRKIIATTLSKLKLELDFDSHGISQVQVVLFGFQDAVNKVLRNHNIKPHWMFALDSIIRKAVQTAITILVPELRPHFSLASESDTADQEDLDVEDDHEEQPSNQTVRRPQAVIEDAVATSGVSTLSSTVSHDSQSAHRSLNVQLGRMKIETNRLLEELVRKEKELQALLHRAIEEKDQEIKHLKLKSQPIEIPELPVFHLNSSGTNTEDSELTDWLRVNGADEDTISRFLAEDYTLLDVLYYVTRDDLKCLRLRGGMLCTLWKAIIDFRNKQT
Description: Scintillation assay for measuring the inhibitory effect against ASK1 (myelin basic protein substrate, [γ-32P]ATP). The test is classed as biochemical. From the text: The inhibitory effect of the compound of the invention on ASK1 may be evaluated by evaluating the phosphorylating activity of the enzyme on a known substrate with or without the presence of the test compound. Example B provides such an assay where myelin basic protein (Wako) is used as substrate and detection is by scintillation counting. It should be understood other substrates and detection mechanism may be used. A commercially available a kit, Cisbio's HTRF® KinEASE™ STK kit, has shown to be useful for evaluating ASK1 activity. The assay uses an anti-phosphoseric specific, Eu3+-Cryptate labeled antibody to mark the phosphorylated product of ASK1 on a biotinylated kinase substrate, and detection is by time resolved fluorescence using XL665 labeled streptavidin. The fluorescence intensity is proportional to the amount of product formation. Example C provides the assay protocol.
Cloning of cDNA encoding human ASK1 was conducted by PCR using primers, 5′-[…] […]-3 (SEQ ID NO: 1) and 5′-AAAGCGGCCGCTCAA […]-3′ (SEQ ID NO: 2), from human heart cDNA library (Becton, Dickinson and Company). The PCR product was subjected to agarose gel (1%) electrophoresis, a 2.2 kb DNA fragment containing an ASK1 gene was recovered from the gel, and then digested with restriction enzymes, NotI and SalI, and inserted into a plasmid pFASTBAC1 (Invitrogen) to prepare a plasmid pFB-ASK1. The insert was verified by sequencing. Recombinant baculovirus was prepared according to the procedure of the Bac-to-Bac baculovirus expression system (Invitrogen).
Sf-21 cells were seeded to achieve 1×10^6 cells/mL in 100 mL of Sf-900 II SFM medium (Invitrogen) which contains 10% fetal calf serum and then cultured at 27° C. for 24 hrs. To express ASK1 in cells, 0.15 mL of the recombinant baculovirus virus stock was added to cells, and the then cultured for 60 hrs. The cells were separated from the culture solution by centrifugation at 3000 rpm for 10 min and washed once with PBS. The cells were suspended in 10 mL of lysis buffer (25 mM HEPES (pH 7.5), 1% Triton X, 130 mM NaCl, 1 mM EDTA, 1 mM DTT, 25 mM β-glycerophosphate, Protease inhibitor complete (Roche), 1 mM sodium orthovanadate) and ruptured by four times of treatment with a homogenizer (POLYTRON) at 20000 rpm for 30 seconds. Active ASK1 protein was purified from a supernatant obtained by centrifugal separation at 40000 rpm for 45 min using anti-FLAG M2 Affinity Gel (Sigma).
The test compounds (2.5 μL) dissolved in DMSO were added to wells containing 37.5 μl of the reaction solution (25 mM HEPES (pH 7.5), 10 mM magnesium acetate, 1 mM DTT) including 30 ng of active ASK1 protein and 1 μg of myelin basic protein (Wako), and incubated at room temperature for 5 min. To start the reaction, 10 μL of ATP solution (2.5 μM ATP, 0.1 μCi [γ-^32P]ATP) was added to wells. After incubating at room temperature for 30 min, the reaction was terminated by adding 50 μl of 20% TCA solution. The reaction solution was incubated at 4° C. for 30 min and an acid-insoluble fraction was transferred onto a GF/C filter (Packard) with Cell Harvester (Packard), and washed with 250 mM phosphoric acid. After drying at 45° C. for 60 min., 40 μL of Microscint 0 (Packard) was added and the radioactivity was measured with TopCount (Packard). The concentrations (IC50 value) of the test compounds necessary for 50% inhibition of kinase activity were calculated by PRISM 3.0 (Graphpad Software).
The enzyme activities of the compounds of the present invention against ASK1 were determined using the assay disclosed in Example A and B. The resulted IC50 values are reported in Table 1.

[1] abbreviates: Table 1, assay of Example A and B, read-out: Enzyme Activity IC50.

By IC50 is commonly meant the concentration that inhibits the measured activity by half. `O=C(Nc1nc2ccc(-c3cn[nH]c3)nc2s1)c1ccc(C2CC2)cc1` [Compound 5, N-(5-(1H-pyrazol-4-yl)thiazolo[5,4-b]pyridin-2-yl)-4-cyclopropylbenzamide]: the IC50 under setting [1] was above 1000 nM.
Still for that read-out and setting: in the case of `CC(C)(O)c1ccc(C(=O)Nc2nc3ccc(-n4ccnc4)nc3s2)cc1` [Compound 7, N-(5-(1H-imidazol-1-yl)thiazolo[5,4-b]pyridin-2-yl)-4-(2-hydroxypropan-2-yl)benzamide] it was 100 to 1000 nM; in that of `CC(C)(O)c1ccc(C(=O)Nc2nc3ccc(N4CCCC4)nc3s2)cc1` [Compound 8, 4-(2-hydroxypropan-2-yl)-N-(5-(pyrrolidin-1-yl)thiazolo[5,4-b]pyridin-2-yl)benzamide], above 1000 nM.
With `CC(C)(C)c1ccc(C(=O)Nc2nc3ccc(-c4cn[nH]c4)nc3s2)cc1` [Compound 9, N-(5-(1H-pyrazol-4-yl)thiazolo[5,4-b]pyridin-2-yl)-4-tert-butylbenzamide], under setting [1], the IC50 is below 100 nM.
On the same count and under the same terms, in the case of `CC(C)(C)c1ccc(C(=O)Nc2nc3ccc(-c4ccncc4)nc3s2)cc1` [Compound 10, 4-tert-butyl-N-(5-(pyridin-4-yl)thiazolo[5,4-b]pyridin-2-yl)benzamide] it was 100 to 1000 nM; in that of `CC(C)(C)c1ccc(C(=O)Nc2nc3ccc(-n4ccnc4)nc3s2)cc1` [Compound 11, N-(5-(1H-imidazol-1-yl)thiazolo[5,4-b]pyridin-2-yl)-4-tert-butylbenzamide], 100 to 1000 nM; in that of `CC(C)(O)c1ccc(C(=O)Nc2nc3ccc(-c4cn[nH]c4)nc3s2)cc1` [Compound 12, N-(5-(1H-pyrazol-4-yl)thiazolo[5,4-b]pyridin-2-yl)-4-(2-hydroxypropan-2-yl)benzamide], below 100 nM.
With `CC(C)(CO)c1ccc(C(=O)Nc2nc3ccc(-c4cn[nH]c4)nc3s2)cc1` [Compound 13, N-(5-(1H-pyrazol-4-yl)thiazolo[5,4-b]pyridin-2-yl)-4-(1-hydroxy-2-methylpropan-2-yl)benzamide], the IC50 under setting [1] is below 100 nM.
Same read-out and setting: then `Cc1n[nH]c(C)c1-c1ccc2nc(NC(=O)c3ccc(C(C)(C)O)cc3)sc2n1` [Compound 14, N-(5-(3,5-dimethyl-1H-pyrazol-4-yl)thiazolo[5,4-b]pyridin-2-yl)-4-(2-hydroxypropan-2-yl)benzamide], with 100 to 1000 nM; and `Cc1n[nH]cc1-c1ccc2nc(NC(=O)c3ccc(C(C)(C)O)cc3)sc2n1` [Compound 15, 4-(2-hydroxypropan-2-yl)-N-(5-(3-methyl-1H-pyrazol-4-yl)thiazolo[5,4-b]pyridin-2-yl)benzamide], with below 100 nM.
On the same count and under the same terms, then `Cn1cc(-c2ccc3nc(NC(=O)c4ccc(C(C)(C)O)cc4)sc3n2)cn1` [Compound 19, 4-(2-hydroxypropan-2-yl)-N-(5-(1-methyl-1H-pyrazol-4-yl)thiazolo[5,4-b]pyridin-2-yl)benzamide], with 100 to 1000 nM; and `COC(=O)c1ccc(C(=O)Nc2nc3ccc(-c4c[nH]nc4C)nc3s2)cc1` [Compound 20, methyl 4-(5-(3-methyl-1H-pyrazol-4-yl)thiazolo[5,4-b]pyridin-2-ylcarbamoyl)benzoate], with above 1000 nM.
The same measure, in the same setting: in the case of `Cc1n[nH]cc1-c1ccc2nc(NC(=O)c3ccc(C(C)(C)CO)cc3)sc2n1` [Compound 21, 4-(1-hydroxy-2-methylpropan-2-yl)-N-(5-(3-methyl-1H-pyrazol-4-yl)thiazolo[5,4-b]pyridin-2-yl)benzamide] it was below 100 nM; in that of `CCc1nccn1-c1ccc2nc(NC(=O)c3ccc(C(C)(C)O)cc3)sc2n1` [Compound 22, N-(5-(2-ethyl-1H-imidazol-1-yl)thiazolo[5,4-b]pyridin-2-yl)-4-(2-hydroxypropan-2-yl)benzamide], above 1000 nM; in that of `Cc1cnccc1-c1ccc2nc(NC(=O)c3ccc(C(C)(C)CO)cc3)sc2n1` [Compound 26, 4-(1-hydroxy-2-methylpropan-2-yl)-N-(5-(3-methylpyridin-4-yl)thiazolo[5,4-b]pyridin-2-yl)benzamide], 100 to 1000 nM.
In the case of `CC(C)(O)c1ccc(C(=O)Nc2nc3ccc(-c4ccncc4)nc3s2)cc1` [Compound 30, 4-(2-hydroxypropan-2-yl)-N-(5-(pyridin-4-yl)thiazolo[5,4-b]pyridin-2-yl)benzamide], the half-maximal inhibitory concentration (IC50) is, setting by setting: under setting [1], 100 to 1000 nM; (assay described in Example B, read-out: IC50 value) 310 nM.
Turning to `CC(C)(CO)c1ccc(C(=O)Nc2nc3ccc(-c4ccc(O)nc4)nc3s2)cc1` [Compound 33, 4-(1-hydroxy-2-methylpropan-2-yl)-N-(5-(6-hydroxypyridin-3-yl)thiazolo[5,4-b]pyridin-2-yl)benzamide], the IC50 under setting [1] was below 100 nM.
Same read-out and setting: in the case of `CC(C)(CO)c1ccc(C(=O)Nc2nc3ccc(-c4ccncc4)nc3s2)cc1` [Compound 34, 4-(1-hydroxy-2-methylpropan-2-yl)-N-(5-(pyridin-4-yl)thiazolo[5,4-b]pyridin-2-yl)benzamide] it was 100 to 1000 nM.
Same read-out and setting: then `CC(C)(O)c1ccc(C(=O)Nc2nc3ccc(-c4ccc(O)nc4)nc3s2)cc1` [Compound 35, 4-(2-hydroxypropan-2-yl)-N-(5-(6-hydroxypyridin-3-yl)thiazolo[5,4-b]pyridin-2-yl)benzamide], with below 100 nM; and `CC(C)(O)c1ccc(C(=O)Nc2nc3ccc(N4CC[C@@H](O)C4)nc3s2)cc1` [Compound 36, (R)-4-(2-hydroxypropan-2-yl)-N-(5-(3-hydroxypyrrolidin-1-yl)thiazolo[5,4-b]pyridin-2-yl)benzamide], with above 1000 nM.
For the molecule `CC(C)(O)c1ccc(C(=O)Nc2nc3ccc(N4CCCCC4)nc3s2)cc1` [Compound 38, 4-(2-hydroxypropan-2-yl)-N-(5-(piperidin-1-yl)thiazolo[5,4-b]pyridin-2-yl)benzamide], the half-maximal inhibitory concentration (IC50) under setting [1] was above 1000 nM.
